For 42 sequences, target mRNA inhibition results are on record in the OligoGym collection.

This data set addresses SOD1. The following applies: ASO.

“And” between values parts separate entries of the source, which are not always exact repeats. Identical values can stand only once. After the bases stand the sugars from the 5' end (letter, count) and the backbone: PS all phosphorothioate, else s phosphorothioate and o phosphodiester by linkage. Methylation of C is not given here. e = 2'-O-(2-methoxyethyl) (MOE); k = constrained ethyl (cEt); d = 2'-deoxy (DNA)

Sequence “GTCATTGAAACAGACAT (sugars e2 k2 d8 k2 e3, PS)” yielded a target mRNA inhibition (HepG2, 5 µM) of 2%.

Take “ATTCACAGGCTTGAATG (sugars e2 k2 d8 k2 e3, PS)”: under “HepG2, 5 µM”, the target mRNA inhibition came to 19%.

Consider “CCGTGTTTTCTGGATAGAGG (sugars e5 d10 e5, PS)”, for which the target mRNA inhibition (HepG2, 5 µM) is 44% and 37%.

On to “TGCAGGCCTTCAGTCAGTCC (sugars e5 d10 e5, PS)”, for which, for the setting “HepG2, 5 µM”, the target mRNA inhibition is 42% and 46%.

In turn, “TTCTGACAAGTTTAATA (sugars e3 k2 d7 k2 e3, PS)” came in with a target mRNA inhibition (HepG2, 3 µM) of 6%.

As to “AGGATACATTTCTACAGC (sugars e5 d8 e5, linkages s1 o3 s9 o2 s2)”, the target mRNA inhibition (A431, 0.12 µM) was determined as 42%; the target mRNA inhibition (A431, 0.6 µM) is 23%; the target mRNA inhibition (A431, 3 µM) is 26%; the target mRNA inhibition (A431, 15 µM) was 45%; the target mRNA inhibition (HepG2, 0.222 µM) was found to be 9%; the target mRNA inhibition (HepG2, 0.667 µM) was determined as 43%. The target mRNA inhibition reads like this: (HepG2, 2 µM) 65%; (HepG2, 6 µM) 86%.

Take “GATTCTTTTAATAGCCTCAT (sugars e5 d10 e5, PS)”: the target mRNA inhibition (HepG2, 5 µM) was 4%.

In the case of “CCAATTACACCACAAGC (sugars e2 k2 d8 k2 e3, PS)”, the target mRNA inhibition (HepG2, 4 µM) was 66%.

In turn, “TAATGTTTATCAGGATA (sugars e2 k2 d8 k2 e3, PS)” displayed a target mRNA inhibition (HepG2, 0.1875 µM) of 48%; a target mRNA inhibition (HepG2, 0.75 µM) of 78%; a target mRNA inhibition (HepG2, 3 µM) of 91%; a target mRNA inhibition (HepG2, 4 µM) of 90%; a target mRNA inhibition (HepG2, 12 µM) of 95%.

Turning to “TTACACCACAAGCCAAA (sugars e2 k2 d8 k2 e3, PS)”, for the setting “HepG2, 4 µM”, the target mRNA inhibition was 60%.

For “CCTCAGACTACATCCAA (sugars e2 k2 d8 k2 e3, PS)”, the target mRNA inhibition by setting is: (HepG2, 0.1875 µM) 26%; (HepG2, 0.75 µM) 51%; (HepG2, 3 µM) 77%; (HepG2, 4 µM) 73%; (HepG2, 12 µM) 91%.

The sequence “GATTAAAGTGAGGACCT (sugars e3 k2 d7 k2 e3, PS)” showed a target mRNA inhibition (HepG2, 3 µM) of 8%.

As for “TAGAGGATTAAAGTGAG (sugars e3 k2 d7 k2 e3, PS)”, the target mRNA inhibition (HepG2, 3 µM) amounted to 21%.

For the sequence “ATTTCTACAGCTAGCAG (sugars e2 k2 d8 k2 e3, PS)”, for the setting “HepG2, 4 µM”, the target mRNA inhibition worked out at 66%.

Take “ACCCATCTGTGATTTAA (sugars e2 k2 d9 k2 e2, PS)”: the target mRNA inhibition (HepG2, 5 µM) stood at 44%.

“CCACACCTTCACTGGTC (sugars e3 k2 d7 k2 e3, PS)” displayed a target mRNA inhibition (HepG2, 3 µM) of 36%.

As for “GTGTTTAATGTTTATCA (sugars e2 k2 d9 k2 e2, PS)”, the target mRNA inhibition came out at 42% (HepG2, 0.1875 µM); 68% (HepG2, 0.75 µM); 86% (HepG2, 3 µM); 86% (HepG2, 5 µM); 89% (HepG2, 12 µM).

The sequence “AAGTGCCATACAGGGTT (sugars e2 k2 d9 k2 e2, PS)” had a target mRNA inhibition (HepG2, 5 µM) of 21%.

In turn, “CTTTTAATAGCCTCATAATA (sugars e5 d10 e5, PS)” displayed a target mRNA inhibition (HepG2, 5 µM) of 0%.

Where the note is “HepG2, 5 µM”, “TGAATTTGGATTCTTTTAAT (sugars e5 d10 e5, PS)” gave a target mRNA inhibition of 0%.

“TACCCATCTGTGATTTAAGT (sugars e5 d10 e5, PS)” yielded a target mRNA inhibition (HepG2, 5 µM) of 50%.

Take “GACTACATCCAAGGGAA (sugars e3 k2 d7 k2 e3, PS)”: the target mRNA inhibition (HepG2, 3 µM) turned out to be 19%.

Sequence “AGATTACAGTGTTTAAT (sugars e3 k2 d7 k2 e3, PS)” returned a target mRNA inhibition (HepG2, 3 µM) of 45%.

Take “CAGGATAACAGATGAGT (sugars e2 k2 d9 k2 e2, PS)”: the target mRNA inhibition reads like this: (HepG2, 0.1875 µM) 56%; (HepG2, 0.75 µM) 89%; (HepG2, 3 µM) 93%; (HepG2, 4 µM) 96%; (HepG2, 12 µM) 96%.

Take “TTTATTGGGCGATCCCA (sugars e2 k2 d9 k2 e2, PS)”: under “HepG2, 4 µM”, the target mRNA inhibition amounted to 46%.

For the sequence “CTTCCCCACACCTTCACT (sugars e5 d8 e5, linkages s1 o3 s9 o2 s2)”, the target mRNA inhibition stood at 0% (A431, 0.12 µM); 8% (A431, 0.6 µM); 3% (A431, 3 µM); 0% (A431, 15 µM); 0% (HepG2, 0.222 µM); 8% (HepG2, 0.667 µM). Moreover, the target mRNA inhibition is, setting by setting: (HepG2, 2 µM) 38%; (HepG2, 6 µM) 48%.

Sequence “CCACCTTTGCCCAAGTC (sugars e3 k2 d7 k2 e3, PS)” yielded a target mRNA inhibition (HepG2, 3 µM) of 91%.

“AAGATTACAGTGTTTAA (sugars e3 k2 d7 k2 e3, PS)” had a target mRNA inhibition (HepG2, 3 µM) of 34%.

Regarding “TTCCAAGTGATCATAAATCA (sugars e5 d10 e5, PS)”, the target mRNA inhibition (HepG2, 5 µM) was determined as 18%.

In turn, “TGCCATACAGGGTTTTT (sugars e3 k2 d7 k2 e3, PS)” had a target mRNA inhibition (HepG2, 3 µM) of 9%.

Regarding “AGCTAGCAGGATAACAG (sugars e2 k2 d8 k2 e3, PS)”, the target mRNA inhibition (HepG2, 4 µM) was determined as 57%.

For the setting “HepG2, 5 µM”, “TCTCACTACAGGTACTT (sugars e2 k2 d9 k2 e2, PS)” had a target mRNA inhibition of 46%.

For the sequence “ACAGCTAGCAGGATAAC (sugars e2 k2 d8 k2 e3, PS)”, the target mRNA inhibition is 11% (HepG2, 0.1875 µM); 64% (HepG2, 0.75 µM); 87% (HepG2, 3 µM); 79% (HepG2, 4 µM); 95% (HepG2, 12 µM).

Turning to “GGCCTCAGACTACATCC (sugars e2 k2 d9 k2 e2, PS)”, the target mRNA inhibition by setting is: (HepG2, 0.1875 µM) 4%; (HepG2, 0.75 µM) 50%; (HepG2, 3 µM) 68%; (HepG2, 4 µM) 76%; (HepG2, 12 µM) 86%.

Take “TCTGACAAGTTTAATAC (sugars e3 k2 d7 k2 e3, PS)”: the target mRNA inhibition (HepG2, 3 µM) came out at 0%.

In turn, “GATAACAGATGAGTTAA (sugars e2 k2 d9 k2 e2, PS)” yielded a target mRNA inhibition (HepG2, 4 µM) of 28%.

In turn, “CAAGGGAATGTTTATTG (sugars e2 k2 d9 k2 e2, PS)” gave a target mRNA inhibition (HepG2, 4 µM) of 38%.

“CCCACACCTTCACTGG (sugars ekddddddddekekee, linkages s1 o1 s8 o3 s2)”: the target mRNA inhibition reads like this: (A431, 0.12 µM) 2%; (A431, 0.6 µM) 0%; (A431, 3 µM) 0%; (A431, 15 µM) 12%; (HepG2, 0.222 µM) 15%; (HepG2, 0.667 µM) 31%. Besides, the target mRNA inhibition runs as follows: (HepG2, 2 µM) 58%; (HepG2, 6 µM) 81%.

Consider “GATACATTTCTACAGCTA (sugars e5 d8 e5, linkages s1 o3 s9 o2 s2)”, for which the target mRNA inhibition is, setting by setting: (A431, 0.12 µM) 7%; (A431, 0.6 µM) 15%; (A431, 3 µM) 39%; (A431, 15 µM) 52%; (HepG2, 0.222 µM) 28%; (HepG2, 0.667 µM) 59%. The target mRNA inhibition is, setting by setting: (HepG2, 2 µM) 73%; (HepG2, 6 µM) 85%.

With “CCAAGTCATCTGCTTTT (sugars e3 k2 d7 k2 e3, PS)”, the target mRNA inhibition (HepG2, 3 µM) was 50%.

With “ACAGTGTTTAATGTTTA (sugars e2 k2 d9 k2 e2, PS)”, the target mRNA inhibition (HepG2, 0.1875 µM) stood at 40%; the target mRNA inhibition (HepG2, 0.75 µM) is 67%; the target mRNA inhibition (HepG2, 3 µM) was found to be 86%; the target mRNA inhibition (HepG2, 4 µM) is 79%; the target mRNA inhibition (HepG2, 5 µM) came out at 84%; the target mRNA inhibition (HepG2, 12 µM) is 83% and 88%.

“GAGGACCTGCACTGGTA (sugars e3 k2 d7 k2 e3, PS)”: the target mRNA inhibition (HepG2, 3 µM) was found to be 17%.
